The source of these data is PMC11879692, “PDE4 inhibitor rolipram represses hedgehog signaling via ubiquitin-mediated proteolysis of GLI transcription factors to regress breast cancer” (The Journal of Biological Chemistry, 2025).

The structures appear in SMILES notation.

The data set is described as follows: Serum biochemical parameters (kidney and liver function) of tumor-induced mice. The data set is classed as in vivo, BALB/c mice. Particulars: mean ± SD (n = 3); for Kidney function Creatinine: Tumor 0.93 ± 0.15, Normal 0.32 ± 0.06; for Liver function Albumin: Tumor 3.56 ± 0.25, Normal 2.36 ± 0.15; for Liver function Protein: Tumor 4.93 ± 0.15, Normal 5.16 ± 0.20; for Kidney function Urea: Tumor 36.89 ± 3.43, Normal 17.30 ± 2.25. Here is the method: Solid tumors were developed in BALB/c mice (n = 3) except the control group (group I) by injecting 1 × 10^4 viable 4T1 (RRID: CVCL_0125) mice breast carcinoma cells (resuspended in 50 μl of PBS) into the inguinal fourth mammary fat pad, and the tumor was allowed to develop for 14 days ([37], [38]). Mice were randomly divided into three groups, viz., untreated tumor (group II), mice treated intraperitoneally with 1 mg//kg bodyweight of rolipram (group III), and mice receiving 5 mg/kg bodyweight of rolipram, intraperitoneally (group IV) ([39], [40]). After 14 days, the mice were sacrificed. Lung, kidney, liver, serum, and the tumors were collected for further experiments ([15]).
The total protein in mouse serum was measured by biuret method, which relies on formation of reddish-violet color in alkaline copper solution ([46]). The absorptivity of the colored solution was measured at 570 nm and compared with known protein standards to determine the level of total protein in the serum. The serum urea level of mouse was determined using urea kit (Coral Clinical Systems; catalog no.: 1102240075), which relies on the reaction of phenolic chromogen and hypochlorite with the ammonia formed from urea ([47]). The absorbance of the test sample (AbsT) and standard sample (AbsS) was recorded at 570 nm, and the concentration of urea was determined by the formula urea (mg/dl) = (AbsT/AbsS) × 40, according to the manufacturer’s protocol. Level of serum creatinine was measured using creatinine kit (Coral Clinical Systems; catalog no.: 1101060035). Briefly, this kit utilizes the formation of a colored complex because of reaction between alkaline picric acid solution and creatinine ([48]). The initial absorbance of the test sample (Abs1T) and standard sample (Abs1S) was measured at 520 nm after 30 s of incubation, and the final absorbance of the test sample (Abs2T) and standard sample (Abs2S) was measured exactly after 60 s. The formula, creatinine (mg/dl) = (Abs2T – Abs1T)/(Abs2S – Abs1S) × 2, was used to determine the concentration of creatinine. Activities of AST and ALT were evaluated from the serum of mice using AST assay kit (catalog no.: MAK055) and ALT assay kit (catalog no.: MAK052) from Sigma–Aldrich, following the manufacturer’s protocol. The estimation of AST activity is based on the production of glutamate by the activity of AST present in the serum samples. The absorbance of the colored product was measured at 450 nm and compared with known standard samples to determine the activity ([49]). Similarly, the ALT assay kit is based on the production of pyruvate in the presence of ALT in serum. The activity of the ALT in mouse serum was determined by measuring the absorbance of the colored product at 570 nm and comparing with the known standard samples ([50]). All the spectrophotometric analyses were carried out in Bio-Rad iMark Microplate Reader (RRID: SCR_023799).

For `COc1ccc(C2CNC(=O)C2)cc1OC1CCCC1` (stereo not shown) [rolipram, Rolipram], where the note is “Tumor + 1 mg/kg”, the “Kidney function Creatinine” value came out at 0.45 ± 0.08 mg/dL, the “Liver function Albumin” value turned out to be 2.73 ± 0.15 g/dL, the “Liver function Protein” value was found to be 5.30 ± 0.10 g/dL and the “Kidney function Urea” value worked out at 20.39 ± 3.06 mg/dL. In addition, where the note is “Tumor + 1 mg/kg, Tumor 135.85 ± 11.7, Normal 85.23 ± 7.97”, the “Liver function AST” value is on record as 119.69 ± 10.1 U/L. Where the note is “Tumor + 5 mg/kg”, the “Kidney function Creatinine” value was determined as 0.50 ± 0.05 mg/dL, the “Liver function Albumin” value was 2.66 ± 0.05 g/dL, the “Liver function Protein” value is 4.90 ± 0.20 g/dL and the “Kidney function Urea” value amounted to 22.08 ± 2.34 mg/dL. Also, the “Liver function ALT” value (Tumor + 5 mg/kg, Tumor 55.77 ± 2.38, Normal 43.31 ± 0.88) is on record as 55.69 ± 4.97 U/L.
